Tests used:
[1] = Compound cytotoxicity, XTT-based colorimetric assay; format: cell-based; conditions: human, uninfected MT2 cells, day 4, XTT
Protocol: Compound cytotoxicity and the corresponding CC50 values were determined using the same protocol as described in the antiviral assay except that uninfected cells were used. Cytotoxicity was assessed on day 4 in uninfected MT2 cells by using a XTT (2,3-bis[2-Methoxy-4-nitro-5-sulfophenyl]-2H-tetrazolium-5-carboxyanilide inner salt)-based colorimetric assay (Sigma-Aldrich, St Louis, Mo.).

[2] = system: recombinant NL4-3 virus (nef section replaced with Renilla luciferase gene) in MT-2 cells; test: HIV cell culture assay (antiviral activity, luciferase readout); format: cell-based; conditions: Renilla, NL43, MT-2 cells infected for 4-5 days with recombinant NL4-3 Renilla luciferase virus, serial dilutions of compound
Protocol: HIV cell culture assay—MT-2 cells, 293T cells and the proviral DNA clone of NL4-3 virus were obtained from the NIH AIDS Research and Reference Reagent Program. MT-2 cells were propagated in RPMI 1640 media supplemented with 10% heat inactivated fetal bovine serum (FBS), 100 μg/ml penicillin G and up to 100 units/mL streptomycin. The 293T cells were propagated in DMEM media supplemented with 10% heat inactivated FBS, 100 μg/mL penicillin G and 100 μg/mL streptomycin. A recombinant NL4-3 proviral clone, in which a section of the nef gene was replaced with the Renilla luciferase gene, was used to make the reference virus used in these studies. The recombinant virus was prepared through transfection of the recombinant NL4-3 proviral clone into 293T cells using Transit-293 Transfection Reagent from Mirus Bio LLC (Madison, Wis.). Supernatent was harvested after 2-3 days and the amount of virus present was titered in MT-2 cells using luciferase enzyme activity as a marker by measuring luciferase enzyme activity. Luciferase was quantitated using the EnduRen Live Cell Substrate from Promega (Madison, Wis.). Antiviral activities of compounds toward the recombinant virus were quantified by measuring luciferase activity in MT-2 cells infected for 4-5 days with the recombinant virus in the presence of serial dilutions of the compound.
The 50% effective concentration (EC50) was calculated by using the exponential form of the median effect equation where (Fa)=1/[1+(ED50/drug conc.)^m] (Johnson VA, Byington RT. Infectivity Assay. In Techniques in HIV Research. ed. Aldovini A, Walker BD. 71-76. New York: Stockton Press. 1990). Curve fitting and analysis were performed with ActivityBase XE Runner software version 9.1.0.4 using model 203 (ID Business Solutions, LTD, Guildford, UK).

Row | SMILES | CC50 at 4 day [1] [nM] | EC50 [2] [nM]
1 | Cn1nc(NS(C)(=O)=O)c2c(Cl)ccc(-n3c([C@H](Cc4cc(F)cc(F)c4)NC(=O)Cn4nc(C(F)F)c5c4C(F)(F)[C@@H]4C[C@H]54)nc4cc(-c5cccc(S(C)(=O)=O)c5)ccc4c3=O)c21 (atropisomer, axis not shown; (aR)) [Example 54, N-((S)-1-(3-(4-chloro-1-methyl-3-(methylsulfonamido)-1H-indazol-7-yl)-7-(3-(methylsulfonyl)phenyl)-4-oxo-3,4-dihydroquinazolin-2-yl)-2-(3,5-difluorophenyl)ethyl)-2-((3bS,4aR)-3-(difluoromethyl)-5,5-difluoro-3b,4,4a,5-tetrahydro-1H-cyclopropa[3,4]cyclopenta[1,2-c]pyrazol-1-yl)acetamide] | > 1000 | 0.21
2 | Cn1nc(NS(C)(=O)=O)c2c(Cl)ccc(-n3c([C@H](Cc4cc(F)cc(F)c4)NC(=O)Cn4nc(C(F)F)c5c4C(F)(F)[C@@H]4C[C@H]54)nc4cc(-c5ccc(Cl)c(C(=O)O)c5)ccc4c3=O)c21 (atropisomer, axis not shown; (aR)) [Example 57] | > 1000 | 17
3 | COc1ccc(-c2ccc3c(=O)n(-c4ccc(Cl)c5c(NS(C)(=O)=O)nn(C)c45)c([C@H](Cc4cc(F)cc(F)c4)NC(=O)Cn4nc(C(F)F)c5c4C(F)(F)[C@@H]4C[C@H]54)nc3c2)cn1 (atropisomer, axis not shown; (aR)) [Example 58, N-((S)-1-(3-(4-chloro-1-methyl-3-(methylsulfonamido)-1H-indazol-7-yl)-7-(6-methoxypyridin-3-yl)-4-oxo-3,4-dihydroquinazolin-2-yl)-2-(3,5-difluorophenyl)ethyl)-2-((3bS,4aR)-3-(difluoromethyl)-5,5-difluoro-3b,4,4a,5-tetrahydro-1H-cyclopropa[3,4]cyclopenta[1,2-c]pyrazol-1-yl)acetamide] | > 1000 | 0.34
4 | CC(C)c1ccc(-c2ccc3c(=O)n(-c4ccc(Cl)c5c(NS(C)(=O)=O)nn(C)c45)c([C@H](Cc4cc(F)cc(F)c4)NC(=O)Cn4nc(C(F)F)c5c4C(F)(F)[C@@H]4C[C@H]54)nc3c2)cc1 (atropisomer, axis not shown; (aR)) [Example 59, N-((S)-1-(3-(4-chloro-1-methyl-3-(methylsulfonamido)-1H-indazol-7-yl)-7-(4-isopropylphenyl)-4-oxo-3,4-dihydroquinazolin-2-yl)-2-(3,5-difluorophenyl)ethyl)-2-((3bS,4aR)-3-(difluoromethyl)-5,5-difluoro-3b,4,4a,5-tetrahydro-1H-cyclopropa[3,4]cyclopenta[1,2-c]pyrazol-1-yl)acetamide] | > 1000 | 5.3
5 | Cc1nn(C)c(C)c1-c1ccc2c(=O)n(-c3ccc(Cl)c4c(NS(C)(=O)=O)nn(C)c34)c([C@H](Cc3cc(F)cc(F)c3)NC(=O)Cn3nc(C(F)F)c4c3C(F)(F)[C@@H]3C[C@H]43)nc2c1 (atropisomer, axis not shown; (aR)) [Example 60, N-((S)-1-(3-(4-chloro-1-methyl-3-(methylsulfonamido)-1H-indazol-7-yl)-4-oxo-7-(1,3,5-trimethyl-1H-pyrazol-4-yl)-3,4-dihydroquinazolin-2-yl)-2-(3,5-difluorophenyl)ethyl)-2-((3bS,4aR)-3-(difluoromethyl)-5,5-difluoro-3b,4,4a,5-tetrahydro-1H-cyclopropa[3,4]cyclopenta[1,2-c]pyrazol-1-yl)acetamide] | > 1000 | 0.32
6 | CNC(=O)c1ccc(-c2ccc3c(=O)n(-c4ccc(Cl)c5c(NS(C)(=O)=O)nn(C)c45)c([C@H](Cc4cc(F)cc(F)c4)NC(=O)Cn4nc(C(F)F)c5c4C(F)(F)[C@@H]4C[C@H]54)nc3c2)cc1 (atropisomer, axis not shown; (aR)) [Example 62, 4-(3-(4-chloro-1-methyl-3-(methylsulfonamido)-1H-indazol-7-yl)-2-((S)-1-(2-((3bS,4aR)-3-(difluoromethyl)-5,5-difluoro-3b,4,4a,5-tetrahydro-1H-cyclopropa[3,4]cyclopenta[1,2-c]pyrazol-1-yl)acetamido)-2-(3,5-difluorophenyl)ethyl)-4-oxo-3,4-dihydroquinazolin-7-yl)-N-methylbenzamide] | > 1000 | 0.48
7 | Cn1nc(NS(C)(=O)=O)c2c(Cl)ccc(-n3c([C@H](Cc4cc(F)cc(F)c4)NC(=O)Cn4nc(C(F)F)c5c4C(F)(F)[C@@H]4C[C@H]54)nc4cc(-c5ccc(Cl)cc5Cl)ccc4c3=O)c21 (atropisomer, axis not shown; (aR)) [Example 63, N-((S)-1-(3-(4-chloro-1-methyl-3-(methylsulfonamido)-1H-indazol-7-yl)-7-(2,4-dichlorophenyl)-4-oxo-3,4-dihydroquinazolin-2-yl)-2-(3,5-difluorophenyl)ethyl)-2-((3bS,4aR)-3-(difluoromethyl)-5,5-difluoro-3b,4,4a,5-tetrahydro-1H-cyclopropa[3,4]cyclopenta[1,2-c]pyrazol-1-yl)acetamide] | > 1000 | 7
8 | Cn1nc(NS(C)(=O)=O)c2c(Cl)ccc(-n3c([C@H](Cc4cc(F)cc(F)c4)NC(=O)Cn4nc(C(F)F)c5c4C(F)(F)[C@@H]4C[C@H]54)nc4cc(-c5cccc(F)c5F)ccc4c3=O)c21 (atropisomer, axis not shown; (aR)) [Example 68, N-((S)-1-(3-(4-chloro-1-methyl-3-(methylsulfonamido)-1H-indazol-7-yl)-7-(2,3-difluorophenyl)-4-oxo-3,4-dihydroquinazolin-2-yl)-2-(3,5-difluorophenyl)ethyl)-2-((3bS,4aR)-3-(difluoromethyl)-5,5-difluoro-3b,4,4a,5-tetrahydro-1H-cyclopropa[3,4]cyclopenta[1,2-c]pyrazol-1-yl)acetamide] | > 1000 | 0.63
9 | COc1c(F)cc(-c2ccc3c(=O)n(-c4ccc(Cl)c5c(NS(C)(=O)=O)nn(C)c45)c([C@H](Cc4cc(F)cc(F)c4)NC(=O)Cn4nc(C(F)F)c5c4C(F)(F)[C@@H]4C[C@H]54)nc3c2)cc1F (atropisomer, axis not shown; (aR)) [Example 70, N-((S)-1-(3-(4-chloro-1-methyl-3-(methylsulfonamido)-1H-indazol-7-yl)-7-(3,5-difluoro-4-methoxyphenyl)-4-oxo-3,4-dihydroquinazolin-2-yl)-2-(3,5-difluorophenyl)ethyl)-2-((3bS,4aR)-3-(difluoromethyl)-5,5-difluoro-3b,4,4a,5-tetrahydro-1H-cyclopropa[3,4]cyclopenta[1,2-c]pyrazol-1-yl)acetamide] | > 1000 | 0.92
10 | Cn1nc(NS(C)(=O)=O)c2c(Cl)ccc(-n3c([C@H](Cc4cc(F)cc(F)c4)NC(=O)Cn4nc(C(F)F)c5c4C(F)(F)[C@@H]4C[C@H]54)nc4cc(-c5cccnc5)ccc4c3=O)c21 (atropisomer, axis not shown; (aR)) [Example 71, N-((S)-1-(3-(4-chloro-1-methyl-3-(methylsulfonamido)-1H-indazol-7-yl)-4-oxo-7-(pyridin-3-yl)-3,4-dihydroquinazolin-2-yl)-2-(3,5-difluorophenyl)ethyl)-2-((3bS,4aR)-3-(difluoromethyl)-5,5-difluoro-3b,4,4a,5-tetrahydro-1H-cyclopropa[3,4]cyclopenta[1,2-c]pyrazol-1-yl)acetamide] | > 1000 | 0.18
11 | Cn1nc(NS(C)(=O)=O)c2c(Cl)ccc(-n3c([C@H](Cc4cc(F)cc(F)c4)NC(=O)Cn4nc(C(F)F)c5c4C(F)(F)[C@@H]4C[C@H]54)nc4cc(-c5ccc(C(=O)O)c(Cl)c5)ccc4c3=O)c21 (atropisomer, axis not shown; (aR)) [Example 75, 2-chloro-4-(3-(4-chloro-1-methyl-3-(methylsulfonamido)-1H-indazol-7-yl)-2-((S)-1-(2-((3bS,4aR)-3-(difluoromethyl)-5,5-difluoro-3b,4,4a,5-tetrahydro-1H-cyclopropa[3,4]cyclopenta[1,2-c]pyrazol-1-yl)acetamido)-2-(3,5-difluorophenyl)ethyl)-4-oxo-3,4-dihydroquinazolin-7-yl)benzoic acid] | > 1000 | 29
